Experimental data: the NIST ThermoML archive (doi:10.1016/j.jct.2015.07.035)
Numbers after ± are expanded uncertainties.

Tests used:
[1] = 101.33 kPa, Liquid, Vibrating tube method
[2] = refractive index (Na D-line) (dimensionless); settings: 101.33 kPa, Liquid, Standard Abbe refractometry

Row | Compound | mass density ([1]; 298.2 K) [kg/m3] | refractive index ([2]; 298.2 K) | mass density ([1]; 303.2 K) [kg/m3] | refractive index ([2]; 303.2 K)
1 | CCCCCCCCCCO [decan-1-ol] | 826.41 ± 1 | 1.43554 ± 0.00042 | – | –
2 | c1ccc(COCc2ccccc2)cc1 [dibenzyl ether] | 1039.32 ± 1.1 | 1.56019 ± 0.00042 | – | –
3 | Clc1ccccc1 [chlorobenzene] | 1101.08 ± 1.1 | 1.52165 ± 0.00042 | – | –
4 | CC(C)CC(=O)O [3-methylbutanoic acid] | 921.34 ± 1.1 | 1.40124 ± 0.00042 | – | –
5 | CC(O)c1ccccc1 (configuration not stated) [1-phenylethanol] | 1006.48 ± 1.1 | 1.52467 ± 0.00042 | – | –
6 | OC1CCCCC1 [cyclohexanol] | – | – | 941.42 ± 1.1 | 1.46238 ± 0.00042
